Data published in PubChem BioAssay AID1645866 (Buhrlage Lab, Dana-Farber Cancer Institute and Novartis …, 2021).
The source made the active and inactive calls.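 How the source made its calls: active means in confirmatory dose-response testing, peak deubiquitinase inhibition of 30% or more; inactive means the rest.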

Target: Ubiquitin carboxyl-terminal hydrolase 28 (Homo sapiens) (UniProt Q96RU2)
Assay: Ubiquitin-specific peptidase 28 DUB inhibitors, biochemical concentration-dependence assay, validation of primary screening hits (AID 1645866)
Details: purified USP28, ubiquitin-rhodamine fluorescence, 30 min

Ubiquitin carboxyl-terminal hydrolase 28 (Homo sapiens), sequence (Q96RU2 whole entry, looked up): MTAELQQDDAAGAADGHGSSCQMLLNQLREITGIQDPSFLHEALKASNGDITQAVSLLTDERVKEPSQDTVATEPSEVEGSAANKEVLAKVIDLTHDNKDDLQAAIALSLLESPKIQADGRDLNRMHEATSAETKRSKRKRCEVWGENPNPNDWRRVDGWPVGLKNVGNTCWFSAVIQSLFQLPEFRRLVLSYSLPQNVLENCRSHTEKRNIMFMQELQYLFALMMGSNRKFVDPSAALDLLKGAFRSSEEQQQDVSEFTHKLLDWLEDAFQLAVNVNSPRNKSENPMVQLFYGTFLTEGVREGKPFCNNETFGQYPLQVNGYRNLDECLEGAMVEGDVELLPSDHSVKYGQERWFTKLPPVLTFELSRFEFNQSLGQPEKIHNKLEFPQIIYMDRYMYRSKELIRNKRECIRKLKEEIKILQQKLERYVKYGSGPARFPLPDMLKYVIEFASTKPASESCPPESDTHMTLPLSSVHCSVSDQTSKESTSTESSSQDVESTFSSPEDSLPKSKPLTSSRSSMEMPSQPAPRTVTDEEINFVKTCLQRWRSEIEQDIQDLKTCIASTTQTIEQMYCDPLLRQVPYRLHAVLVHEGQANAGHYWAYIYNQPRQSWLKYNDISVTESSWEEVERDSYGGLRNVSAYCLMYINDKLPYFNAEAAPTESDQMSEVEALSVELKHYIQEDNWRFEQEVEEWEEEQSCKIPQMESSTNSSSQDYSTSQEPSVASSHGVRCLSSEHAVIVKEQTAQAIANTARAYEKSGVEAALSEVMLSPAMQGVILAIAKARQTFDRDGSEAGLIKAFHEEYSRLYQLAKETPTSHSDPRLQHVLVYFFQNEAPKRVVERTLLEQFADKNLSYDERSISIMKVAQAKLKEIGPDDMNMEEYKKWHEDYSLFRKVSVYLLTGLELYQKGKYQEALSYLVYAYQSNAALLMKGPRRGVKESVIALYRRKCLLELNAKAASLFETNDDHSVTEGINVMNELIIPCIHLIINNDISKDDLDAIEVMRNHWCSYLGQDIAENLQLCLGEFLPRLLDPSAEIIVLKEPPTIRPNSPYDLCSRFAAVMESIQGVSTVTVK

## Cc1ccc2c(c1)[C@]1(C(=O)N2)[C@@H](C(=O)c2ccccc2)[C@]2(C(=O)Nc3ccccc32)[C@@H]2CCCN21
  IC50: 23.3 µM

## O=C(Nc1ccc(F)c(Cl)c1)c1ccc(N2CCCCS2(=O)=O)cc1Cl
  IC50: 30.5 µM

## Cc1ccc(N=Cc2sc(O)c3ccccc23)c(C)c1
  IC50: > 50 µM (inactive)

## CSc1nc2ncn(CC(=O)Nc3cccc(Cl)c3)c(=O)c2s1
  IC50: > 50 µM (inactive)

## COc1ccc(OCCn2c(C3CC(=O)N(c4cccc(C)c4)C3)nc3ccccc32)cc1 (centres undefined)
  IC50: 1.57 µM

## O=C(Cn1c(=O)n(-c2ccccc2)c(=O)c2ccc(C(=O)NCc3ccc4c(c3)OCO4)cc21)NCCC1=CCCCC1
  IC50: 15.7 µM

## CCNc1oc(-c2ccc(S(=O)(=O)N3CCCCC3)cc2)nc1C#N
  IC50: 26.6 µM

## Cc1ccc2[nH]c(=O)c(CN(Cc3cccnc3)C(=O)c3cccc(Cl)c3)cc2c1
  IC50: > 50 µM (inactive)

## O=C(COC(=O)c1cc(Cl)c2c(c1)OCO2)Nc1ccc2[nH]c(=O)[nH]c2c1
  IC50: 2.92 µM

## Cn1c(=O)[nH]c(=O)c2c1nc1n(CCc3ccccc3)c(-c3ccccc3)cn21
  IC50: 42.2 µM

## COc1cccc(N2CCN(C(=O)CCNS(=O)(=O)c3ccc4c(c3)CCC(=O)N4)CC2)c1
  IC50: > 50 µM (inactive)

## CCn1cnc2c1c(=O)n(CC(=O)NCc1ccccc1Cl)c(=O)n2Cc1ccccc1
  IC50: > 50 µM (inactive)

## CCCc1cc(=O)oc2cc(OCC(=O)NCc3ccc(OC)cc3)ccc12
  IC50: 16.6 µM

## COc1ccc(CN(C(=O)c2cc(-c3ccc(C)cc3)on2)C2CCS(=O)(=O)C2)cc1 (centres undefined)
  IC50: 38 µM

## Cc1cc2nc(/C=C/c3ccccc3)n(Cc3cccc(F)c3)c2cc1C
  IC50: 4.94 µM

## CCOc1ccc(-c2cc3nc(C4CCN(C(=O)OC(C)(C)C)CC4)c(C(=O)Nc4cc(F)ccc4F)cn3n2)cc1
  IC50: > 50 µM (inactive)

## CCOc1ccc2[nH]c3c(=O)n(CCc4ccc(OC)cc4)cnc3c2c1
  IC50: 5.81 µM

## O=C(COc1nc2ccccc2nc1N1CCOCC1)Nc1cccc(S(=O)(=O)N2CCCCC2)c1
  IC50: > 50 µM (inactive)

## O=C(c1cn(-c2cccc(F)c2)nn1)N1CCc2ccccc2C1
  IC50: 22.8 µM

## COc1cccc(NC(=O)CSc2nnc(-c3cc4cccc(OC)c4o3)n2C)c1
  IC50: 14.6 µM

## COc1ccc(NC(=O)CC(=O)c2ccc([N+](=O)[O-])cc2)cc1S(=O)(=O)Nc1ccc(Cl)cc1
  IC50: 33.3 µM

## COCC(C)Nc1ncc(-c2cnccn2)c(-c2ccc(C)s2)n1 (centres undefined)
  IC50: > 50 µM (inactive)

## C[C@@]12c3ccc4c(c3C(=O)c3occ(c31)C(O)C[C@H]2O)CCC4=O (some centres undefined)
  IC50: > 50 µM (inactive)

## Cc1ncncc1C(=O)N1CCCC(C)(c2ncc(Cc3cccc(F)c3)o2)C1 (centres undefined)
  IC50: > 50 µM (inactive)

## CCCCNc1nc2c(-c3ccccc3)nnn2c2ccccc12
  IC50: 6.63 µM

## O=C(NCCN1CCCC1)C1CCN(c2cnc(N3CCCCC3)nc2)CC1
  IC50: < 0.05 µM

## CN=C(N)NCCC/C=C/CCCC(C)CC(C)C1OC(=O)/C=C/C(C)C(O)CC(O)C(C)C(O)CCC(C)C(O)CC2(O)OC(CC(OC(=O)CC(=O)O)CC(O)CC(O)C(C)C(O)/C=C/C1C)CC(O)C2O (centres undefined)
  IC50: 19.8 µM

## COc1ccc(-c2cc(N3CCC(NC(=O)c4ccccc4)C3)n[nH]2)cc1 (centres undefined)
  IC50: 16 µM

## Cc1ccc2c(Nc3ccc(CC(=O)O)cc3)c(C(=O)N3CCCC3)cnc2n1
  IC50: > 50 µM (inactive)

## O=C(Cn1c(=O)c2sccc2n(Cc2ccc([N+](=O)[O-])cc2)c1=O)NCCc1ccccc1
  IC50: 19.5 µM

## COc1ccc(NC(=O)CNC(=O)c2ccc3nc(-n4cccc4)sc3c2)cc1
  IC50: 3.11 µM

## CC(C(=O)Nc1ccccc1)n1cnc2nc(N3CCCCC3)ncc2c1=O (centres undefined)
  IC50: > 50 µM (inactive)

## O=C(CN(Cc1ccc(Cl)cc1)S(=O)(=O)c1ccc(Cl)cc1)N1CCOCC1
  IC50: > 50 µM (inactive)

## COc1ccc(OC)c(-c2cn3ccn(-c4ccc5c(c4)CCC5)c(=O)c3n2)c1
  IC50: > 50 µM (inactive)

## COc1cc(OC)cc(-n2c(=O)c3sccc3n(CC(=O)c3ccc(F)cc3)c2=O)c1
  IC50: 28 µM

## O=C1Oc2nc3ccccc3cc2CN1Cc1ccco1
  IC50: 18.4 µM

## COc1ccc(NC(=O)C2CC(=O)Nc3cc(-c4ccccc4)nn32)cc1 (centres undefined)
  IC50: 21.7 µM

## Cc1cccc(NC(=O)Cn2c(-c3cnccn3)nc(C)c(C)c2=O)c1C
  IC50: > 50 µM (inactive)

## COc1ccc2nc(SCC(=O)Nc3ccc(NC(C)=O)cc3)c(C)cc2c1
  IC50: 9.45 µM

## COc1ccc(S(=O)(=O)N2CCC3(CC2)OC(=O)Nc2ccccc23)cc1
  IC50: 43.4 µM

## CCC(C)Oc1cccc(C(=O)Nc2ccc(CN3CCOCC3)cc2)c1 (centres undefined)
  IC50: 1.74 µM

## O=C(CCc1nnc2n(Cc3ccc(F)cc3)c(=O)c3ccccc3n12)N1CCN(c2ccccn2)CC1
  IC50: > 50 µM (inactive)

## CC(CCc1ccccc1)NC(=O)C(=O)c1cn(CC(=O)N2CCOCC2)c2ccccc12 (centres undefined)
  IC50: > 50 µM (inactive)

## COc1cccc(-c2cc(C(=O)N3CCN(c4ccc(N5CCOCC5)nn4)CC3)[nH]n2)c1
  IC50: 3.83 µM

## CC(C)(C)c1cc(C[C@@H]2C[C@H](NC(=O)N3CCOCC3)C2(C)C)no1
  IC50: > 50 µM (inactive)

## O=C(Nc1ccc2c(c1)OCO2)C1CCN(Cc2nc3ccccc3s2)CC1
  IC50: 2.4 µM

## CCc1ccc(NC(=O)COC(=O)c2n[nH]c3ccccc23)cc1
  IC50: 12 µM

## Cc1ccc(C)c(-n2c(C)cc(/C=C3/C(=N)N4C(c5ccc(F)cc5)=CSC4=NC3=O)c2C)c1
  IC50: > 50 µM (inactive)

## COc1cnc(-c2ccccn2)nc1Sc1ccccc1Cl
  IC50: 10.9 µM

## Cc1cc(C(=O)Nc2cc(C)n(Cc3ccc(Cl)cc3)n2)no1
  IC50: 13.4 µM

## NS(=O)(=O)c1cccc(NC(=O)CN2CCCc3ccccc32)c1
  IC50: > 50 µM (inactive)

## Cc1sc2ncn3c(=O)n(CC(=O)Nc4ccc(F)c(Cl)c4)nc3c2c1C
  IC50: 3.14 µM

## CC(C)(C)C(=O)C1C2C(=O)N(c3ccc4c(c3)OCO4)C(=O)C2C2c3ccccc3C=CN12 (centres undefined)
  IC50: > 50 µM (inactive)

## Cc1oc(C2CC2)cc1C(=O)N1CCC2(CC1)CC1(CO2)Nc2ccccc2-n2cccc21 (centres undefined)
  IC50: > 50 µM (inactive)

## Cc1ccccc1C(=O)c1ccc(C(=O)NC2CCCCCC2)[nH]1
  IC50: 7.45 µM

## Cc1ccccc1NC(=O)C(C)n1c(=O)cc(-c2ccccc2)c2c(C)nn(C)c21 (centres undefined)
  IC50: 7.75 µM

## Cc1ccc(C)c(NS(=O)(=O)c2cc(-c3cnc(C4CC4)o3)ccc2C)c1
  IC50: 34.7 µM

## O=C(Nc1ccncc1)c1ncoc1-c1cccc(Cl)c1
  IC50: 32.3 µM

## COc1ccc(C)cc1NC(=O)C1CC(=O)Nc2nc(SCc3ccccc3)nn21 (centres undefined)
  IC50: 14.7 µM

## COc1ccc(NC(=O)CC(=O)c2ccc([N+](=O)[O-])cc2)cc1S(=O)(=O)Nc1ccc(Br)cc1
  IC50: 28.1 µM

## O=C(COc1ccc2c(-c3ccccc3)cc(=O)oc2c1)Nc1cccnc1
  IC50: 2.54 µM

## O=S(c1ccc2ccccc2c1)c1cnns1 (centres undefined)
  IC50: > 50 µM (inactive)

## CC(=O)C1=C(O)[C@]2(O)C(=O)c3c(c(C)c4ccc(C)c(O)c4c3O)C[C@H]2[C@@H](N)C1=O
  IC50: 1.49 µM

## O=c1c2cnc(N3CCCCC3)nc2ccn1CCc1ccccc1
  IC50: 5.5 µM

## O=C(Nc1cccc(Cl)c1)c1ncn2c1CNS(=O)(=O)c1ccccc1-2
  IC50: 13.4 µM

## COc1ccccc1-c1nc(-c2nnn(Cc3ccc(C)cc3)c2C)no1
  IC50: 5.47 µM

## CN1CCN(C(=O)c2cc(-c3ccn(CC4CC4)n3)n3ccccc23)CC1
  IC50: > 50 µM (inactive)

## O=C(CCCn1c(=O)[nH]c2cc(Cl)ccc2c1=O)N1CCc2ccccc2C1
  IC50: 19.4 µM

## CCn1ccc2c(cc(C(=O)Nc3cc(F)ccc3F)n2C)c1=O
  IC50: 2.22 µM
